Measured values published in ChEMBL document CHEMBL3997855, “Discovery of Fevipiprant (NVP-QAW039), a Potent and Selective DP2 Receptor Antagonist for Treatment of Asthma” (ACS Med Chem Lett, 2017).
pEC50, pIC50, pKd, pKi: −log10 of the molar value. Each block holds one compound with its values, some of them ahead of it.

Columns and labels:
[1] = target: T1, Prostaglandin D2 receptor 2 (Homo sapiens, UniProt Q9Y5Y4); test: Antagonist activity at DP2 receptor in human isolated eosinophils assessed as inhibition of DK-PGD2-induced shape change preincubated for 5 mins followed by DK-PGD2 addition measured after 5 mins by flow cytometry
T1 sequence (Q9Y5Y4 whole entry): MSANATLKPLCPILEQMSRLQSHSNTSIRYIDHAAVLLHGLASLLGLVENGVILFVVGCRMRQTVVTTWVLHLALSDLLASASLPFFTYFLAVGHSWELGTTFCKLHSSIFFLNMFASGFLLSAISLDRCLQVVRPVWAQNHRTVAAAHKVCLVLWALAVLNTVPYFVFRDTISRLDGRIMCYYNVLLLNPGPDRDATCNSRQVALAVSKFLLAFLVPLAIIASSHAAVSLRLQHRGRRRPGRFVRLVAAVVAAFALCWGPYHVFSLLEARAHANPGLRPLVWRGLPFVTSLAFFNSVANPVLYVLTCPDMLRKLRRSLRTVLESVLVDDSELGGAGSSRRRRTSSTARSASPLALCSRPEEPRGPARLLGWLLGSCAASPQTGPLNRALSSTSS

[2] = target: T1, Prostaglandin D2 receptor 2; test: Displacement of [3H]PGD2 from human DP2 receptor expressed in CHO cell membranes after 60 mins by scintillation proximity assay
Rattus norvegicus [3] = test: In vivo antagonist activity at DP2 receptor in Sprague-Dawley rat DK-PGD2-induced pulmonary eosinophilia mechanistic model assessed inhibition of eosinophilia in broncho alveolar lavage fluid at 0.1 to 0.3 mg/kg, po pretreated for 40 mins starting at 2 hrs post IL-5 administration followed by DK-PGD2 administration measured after 2 hrs; format: functional, organism-based
[4] = target: T1, Prostaglandin D2 receptor 2; test: Displacement of [3H]NVP-QAW039 from human DP2 receptor expressed in CHO cell membranes by TopCount scintillation assay
[5] = target: T1, Prostaglandin D2 receptor 2; test: Antagonist activity at DP2 receptor in CD4-positive human TH2 cells assessed as inhibition of DK-PGD2-induced IL-5 production after 6 to 8 hrs
[6] = Antagonist activity at DP2 receptor in human whole assessed as inhibition of DK-PGD2-induced eosinophils shape change preincubated for 5 mins followed by DK-PGD2 addition measured after 5 mins by flow cytometry
[7] = target: T1, Prostaglandin D2 receptor 2; test: Antagonist activity at DP2 receptor in CD4-positive human TH2 cells assessed as inhibition of DK-PGD2-induced IL-13 production after 6 to 8 hrs
[8] = target: T2, Prostaglandin D2 receptor 2 (Homo sapiens) (UniProt Q9Y5Y4)
T2 sequence (whole entry): T1 sequence (Q9Y5Y4 whole entry)
Description: Displacement of [3H]NVP-QAW039 from human DP2 receptor expressed in CHO cell membranes assessed as dissociation half life by TopCount scintillation assay

Cytochrome P450 1A2 = target: T3, Cytochrome P450 1A2 (Homo sapiens, UniProt P05177); test: Inhibition of human CYP1A2; format: ADME
T3 sequence (P05177 whole entry): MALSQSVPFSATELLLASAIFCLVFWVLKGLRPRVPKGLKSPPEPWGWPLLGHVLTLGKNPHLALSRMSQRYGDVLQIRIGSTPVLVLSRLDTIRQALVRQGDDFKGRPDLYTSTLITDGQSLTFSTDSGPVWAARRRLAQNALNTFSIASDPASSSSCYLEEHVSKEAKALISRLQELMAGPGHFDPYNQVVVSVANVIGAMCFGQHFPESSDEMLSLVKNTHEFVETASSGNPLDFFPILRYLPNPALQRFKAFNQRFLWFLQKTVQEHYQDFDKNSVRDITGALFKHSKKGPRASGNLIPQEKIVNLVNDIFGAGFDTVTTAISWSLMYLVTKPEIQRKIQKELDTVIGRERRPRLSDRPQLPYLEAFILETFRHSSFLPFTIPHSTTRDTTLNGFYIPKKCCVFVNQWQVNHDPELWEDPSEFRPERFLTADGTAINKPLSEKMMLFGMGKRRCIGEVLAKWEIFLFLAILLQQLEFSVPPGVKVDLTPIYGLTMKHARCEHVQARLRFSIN

[9] = target: T4, Prostaglandin E2 receptor EP3 subtype (Homo sapiens, UniProt P43115); test: Agonist activity at EP3 receptor (unknown origin)
T4 sequence (P43115 whole entry): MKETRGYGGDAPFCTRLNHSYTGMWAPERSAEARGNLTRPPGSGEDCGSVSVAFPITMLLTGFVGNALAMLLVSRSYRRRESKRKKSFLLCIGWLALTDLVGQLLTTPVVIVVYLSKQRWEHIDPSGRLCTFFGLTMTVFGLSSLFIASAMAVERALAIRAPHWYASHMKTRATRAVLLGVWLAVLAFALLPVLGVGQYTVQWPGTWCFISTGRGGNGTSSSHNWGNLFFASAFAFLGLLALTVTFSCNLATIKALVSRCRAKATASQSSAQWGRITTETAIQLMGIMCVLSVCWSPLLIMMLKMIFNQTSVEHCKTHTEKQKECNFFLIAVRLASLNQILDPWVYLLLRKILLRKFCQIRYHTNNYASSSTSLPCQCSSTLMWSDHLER

[10] = Fraction unbound in plasma of Sprague-Dawley rat DK-PGD2-induced pulmonary eosinophilia mechanistic model at 0.03 to 0.1 mg/kg, po by equilibrium dialysis method; format: ADME, organism-based
[11] = target: Prostaglandin E2 receptor EP4 subtype (Homo sapiens, UniProt P35408); test: Antagonist activity at EP4 receptor (unknown origin)
Sequence of Prostaglandin E2 receptor EP4 subtype (P35408 whole entry): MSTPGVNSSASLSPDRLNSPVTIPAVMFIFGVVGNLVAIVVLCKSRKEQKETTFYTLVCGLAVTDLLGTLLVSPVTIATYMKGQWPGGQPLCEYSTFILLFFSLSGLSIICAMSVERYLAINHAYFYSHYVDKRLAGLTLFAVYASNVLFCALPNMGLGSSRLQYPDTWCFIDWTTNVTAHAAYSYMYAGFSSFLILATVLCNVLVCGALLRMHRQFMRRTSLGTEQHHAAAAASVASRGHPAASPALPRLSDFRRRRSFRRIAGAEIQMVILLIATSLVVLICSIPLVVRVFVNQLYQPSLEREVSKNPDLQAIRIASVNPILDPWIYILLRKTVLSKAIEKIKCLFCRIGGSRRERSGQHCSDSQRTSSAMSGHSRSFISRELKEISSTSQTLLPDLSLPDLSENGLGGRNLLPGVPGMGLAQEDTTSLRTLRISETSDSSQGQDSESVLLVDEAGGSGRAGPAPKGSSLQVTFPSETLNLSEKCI

[12] = target: T4, Prostaglandin E2 receptor EP3 subtype; test: Antagonist activity at EP3 receptor (unknown origin)
[13] = target: T1, Prostaglandin D2 receptor 2; test: Antagonist activity at DP2 receptor in CD4-positive human TH2 cells assessed as inhibition of PGD2-induced IL-4 production preincubated for 30 mins followed by PGD2 addition measured after 6 hrs
[14] = target: Prostaglandin F2-alpha receptor (Homo sapiens, UniProt P43088); test: Antagonist activity at FP receptor (unknown origin)
Sequence of Prostaglandin F2-alpha receptor (P43088 whole entry): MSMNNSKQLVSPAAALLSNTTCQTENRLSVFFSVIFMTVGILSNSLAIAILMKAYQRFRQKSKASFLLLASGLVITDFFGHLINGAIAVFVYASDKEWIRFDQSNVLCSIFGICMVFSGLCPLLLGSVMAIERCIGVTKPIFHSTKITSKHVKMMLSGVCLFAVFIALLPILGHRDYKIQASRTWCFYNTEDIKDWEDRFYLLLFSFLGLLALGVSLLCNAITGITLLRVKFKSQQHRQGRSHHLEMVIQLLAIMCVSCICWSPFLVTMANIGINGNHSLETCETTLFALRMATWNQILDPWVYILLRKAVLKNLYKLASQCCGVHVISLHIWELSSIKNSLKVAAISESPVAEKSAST

[15] = target: T5, Nuclear receptor subfamily 1 group I member 2 (Homo sapiens, UniProt O75469); test: Activation of PXR (unknown origin) assessed as CYP3A4 induction; format: ADME
T5 sequence (O75469 whole entry): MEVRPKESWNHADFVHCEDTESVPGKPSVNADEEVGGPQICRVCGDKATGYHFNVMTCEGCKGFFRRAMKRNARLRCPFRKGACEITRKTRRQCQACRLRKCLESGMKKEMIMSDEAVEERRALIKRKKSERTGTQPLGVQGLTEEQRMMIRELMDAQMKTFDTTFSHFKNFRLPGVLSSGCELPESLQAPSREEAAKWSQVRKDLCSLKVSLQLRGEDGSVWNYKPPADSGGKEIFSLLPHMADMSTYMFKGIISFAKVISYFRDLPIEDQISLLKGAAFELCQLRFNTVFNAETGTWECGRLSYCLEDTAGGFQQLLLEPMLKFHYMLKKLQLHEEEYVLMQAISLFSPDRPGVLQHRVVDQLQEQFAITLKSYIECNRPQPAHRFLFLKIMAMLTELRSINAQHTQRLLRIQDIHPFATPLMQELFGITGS

Cytochrome P450 2C9 = Cytochrome P450 2C9 (Homo sapiens, UniProt P11712); test: Inhibition of human CYP2C9; format: ADME
Sequence of Cytochrome P450 2C9 (P11712 whole entry): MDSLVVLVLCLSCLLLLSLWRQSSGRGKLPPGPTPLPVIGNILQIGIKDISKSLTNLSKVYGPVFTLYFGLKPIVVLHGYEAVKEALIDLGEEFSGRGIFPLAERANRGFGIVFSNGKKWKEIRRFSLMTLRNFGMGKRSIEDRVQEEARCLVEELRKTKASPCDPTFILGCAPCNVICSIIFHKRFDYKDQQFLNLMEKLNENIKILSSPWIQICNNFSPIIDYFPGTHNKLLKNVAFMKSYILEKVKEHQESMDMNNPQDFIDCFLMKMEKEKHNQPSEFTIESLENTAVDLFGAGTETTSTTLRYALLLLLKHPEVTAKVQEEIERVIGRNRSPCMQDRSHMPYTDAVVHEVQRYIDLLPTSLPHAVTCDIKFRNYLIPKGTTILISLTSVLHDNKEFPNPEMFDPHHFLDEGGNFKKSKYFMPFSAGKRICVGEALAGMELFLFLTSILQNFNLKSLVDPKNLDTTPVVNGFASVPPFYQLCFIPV

Cytochrome P450 3A4 = Cytochrome P450 3A4 (Homo sapiens, UniProt P08684); test: Inhibition of human CYP3A4; format: ADME
Sequence of Cytochrome P450 3A4 (P08684 whole entry): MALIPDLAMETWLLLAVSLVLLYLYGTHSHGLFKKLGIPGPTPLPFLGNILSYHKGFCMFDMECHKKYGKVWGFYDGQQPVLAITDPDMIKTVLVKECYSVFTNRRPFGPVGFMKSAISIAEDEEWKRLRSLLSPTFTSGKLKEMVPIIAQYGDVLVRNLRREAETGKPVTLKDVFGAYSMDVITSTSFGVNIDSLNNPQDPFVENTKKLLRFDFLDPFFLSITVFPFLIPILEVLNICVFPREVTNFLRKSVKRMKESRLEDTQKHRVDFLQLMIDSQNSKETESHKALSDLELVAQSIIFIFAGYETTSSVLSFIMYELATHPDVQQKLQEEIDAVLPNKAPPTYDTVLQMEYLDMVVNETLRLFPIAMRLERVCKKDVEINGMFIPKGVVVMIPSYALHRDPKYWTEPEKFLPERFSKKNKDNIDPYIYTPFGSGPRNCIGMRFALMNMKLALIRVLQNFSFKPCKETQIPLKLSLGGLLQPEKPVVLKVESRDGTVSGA

[16] = Half life in Wistar rat at 0.5 mg/kg, iv by LC-MS/MS analysis; format: ADME, organism-based; details: in vivo
[17] = Volume of distribution at steady state in Wistar rat at 0.5 mg/kg, iv or 3 mg/kg, po by LC-MS/MS analysis; format: ADME, organism-based; details: in vivo, read-out: Vdss
Rattus norvegicus [18] = test: In vivo antagonist activity at DP2 receptor in Sprague-Dawley rat DK-PGD2-induced pulmonary eosinophilia mechanistic model assessed inhibition of eosinophilia in broncho alveolar lavage fluid at 0.03 to 0.1 mg/kg, po pretreated for 40 mins starting at 2 hrs post IL-5 administration followed by DK-PGD2 administration measured after 2 hrs; format: functional, organism-based
Prostacyclin receptor [19] = target: T6, Prostacyclin receptor (Homo sapiens, UniProt P43119); test: Agonist activity at IP receptor (unknown origin)
T6 sequence (P43119 whole entry): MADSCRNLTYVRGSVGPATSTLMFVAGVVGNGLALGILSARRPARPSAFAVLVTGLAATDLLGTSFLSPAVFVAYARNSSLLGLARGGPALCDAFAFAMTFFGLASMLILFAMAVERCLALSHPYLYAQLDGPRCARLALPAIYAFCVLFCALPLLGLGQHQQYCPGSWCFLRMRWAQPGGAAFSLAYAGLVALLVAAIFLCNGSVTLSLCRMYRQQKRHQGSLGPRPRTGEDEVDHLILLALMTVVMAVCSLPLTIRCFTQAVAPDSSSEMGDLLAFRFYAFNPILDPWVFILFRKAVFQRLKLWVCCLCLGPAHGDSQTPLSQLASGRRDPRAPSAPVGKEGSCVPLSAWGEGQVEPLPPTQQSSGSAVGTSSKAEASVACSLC

Thromboxane A2 receptor = target: T7, Thromboxane A2 receptor (Homo sapiens, UniProt P21731); test: Antagonist activity at TP receptor (unknown origin)
T7 sequence (P21731 whole entry): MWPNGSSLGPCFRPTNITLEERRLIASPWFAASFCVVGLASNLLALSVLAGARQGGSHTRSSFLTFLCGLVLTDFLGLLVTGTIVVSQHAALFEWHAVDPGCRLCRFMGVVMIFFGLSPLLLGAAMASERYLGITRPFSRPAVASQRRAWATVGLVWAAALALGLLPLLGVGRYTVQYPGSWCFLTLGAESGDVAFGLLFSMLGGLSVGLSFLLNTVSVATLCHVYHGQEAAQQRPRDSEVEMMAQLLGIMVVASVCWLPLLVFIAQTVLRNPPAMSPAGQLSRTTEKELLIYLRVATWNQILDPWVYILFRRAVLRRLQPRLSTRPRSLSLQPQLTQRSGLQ

[20] = Oral bioavailability in Wistar rat at 3 mg/kg by LC-MS/MS analysis; format: ADME, organism-based; details: in vivo
[21] = target: Prostaglandin E2 receptor EP2 subtype (Homo sapiens, UniProt P43116); test: Antagonist activity at EP2 receptor (unknown origin)
Sequence of Prostaglandin E2 receptor EP2 subtype (P43116 whole entry): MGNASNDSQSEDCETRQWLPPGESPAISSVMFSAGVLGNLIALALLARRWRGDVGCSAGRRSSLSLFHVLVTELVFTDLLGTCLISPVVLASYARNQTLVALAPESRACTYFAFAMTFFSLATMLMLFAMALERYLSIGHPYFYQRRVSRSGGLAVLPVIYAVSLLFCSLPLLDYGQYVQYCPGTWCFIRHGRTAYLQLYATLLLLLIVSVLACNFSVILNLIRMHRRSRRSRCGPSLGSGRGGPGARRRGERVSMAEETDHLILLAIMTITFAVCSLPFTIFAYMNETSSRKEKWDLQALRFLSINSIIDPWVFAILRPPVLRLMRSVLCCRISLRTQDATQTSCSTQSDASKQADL

Cytochrome P450 2D6 = Cytochrome P450 2D6 (Homo sapiens, UniProt P10635); test: Inhibition of human CYP2D6; format: ADME
Sequence of Cytochrome P450 2D6 (P10635 whole entry): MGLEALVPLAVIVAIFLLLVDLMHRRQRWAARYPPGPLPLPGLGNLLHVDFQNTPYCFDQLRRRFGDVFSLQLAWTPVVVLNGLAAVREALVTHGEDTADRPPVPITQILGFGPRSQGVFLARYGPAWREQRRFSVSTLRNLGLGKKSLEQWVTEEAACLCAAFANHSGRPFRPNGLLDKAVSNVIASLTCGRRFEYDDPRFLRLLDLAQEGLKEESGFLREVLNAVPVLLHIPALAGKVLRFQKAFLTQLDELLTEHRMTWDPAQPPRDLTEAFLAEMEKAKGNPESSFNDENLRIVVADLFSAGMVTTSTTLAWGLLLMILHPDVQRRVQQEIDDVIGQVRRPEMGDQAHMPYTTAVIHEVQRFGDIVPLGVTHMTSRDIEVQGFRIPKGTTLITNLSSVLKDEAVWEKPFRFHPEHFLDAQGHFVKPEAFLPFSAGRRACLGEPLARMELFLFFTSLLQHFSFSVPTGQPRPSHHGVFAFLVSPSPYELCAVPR

Prostacyclin receptor [22] = target: T6, Prostacyclin receptor; test: Antagonist activity at IP receptor (unknown origin)
Canis familiaris = species: Canis familiaris; test: Toxicity in dog; design: species or system Canis lupus familiaris; details: in vivo
[23] = target: T8, Prostaglandin D2 receptor (Homo sapiens, UniProt Q13258); test: Antagonist activity at DP1 receptor (unknown origin)
T8 sequence (Q13258 whole entry): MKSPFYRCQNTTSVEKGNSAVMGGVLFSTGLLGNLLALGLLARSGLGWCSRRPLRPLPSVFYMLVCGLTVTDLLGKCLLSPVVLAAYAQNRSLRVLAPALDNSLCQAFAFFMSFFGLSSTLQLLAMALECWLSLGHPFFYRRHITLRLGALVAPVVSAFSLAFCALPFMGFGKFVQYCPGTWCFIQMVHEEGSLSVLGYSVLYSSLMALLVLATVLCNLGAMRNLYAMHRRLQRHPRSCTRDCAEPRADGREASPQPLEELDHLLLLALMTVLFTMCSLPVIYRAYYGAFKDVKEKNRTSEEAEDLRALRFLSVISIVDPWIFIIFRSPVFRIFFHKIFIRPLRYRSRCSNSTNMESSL

Rattus norvegicus [24] = species: Rattus norvegicus; test: Toxicity in rat; details: in vivo
[25] = Clearance in Wistar rat at 0.5 mg/kg, iv or 3 mg/kg, po by LC-MS/MS analysis; format: ADME, organism-based; details: in vivo

SMILES: Cc1c(CC(=O)O)c2c(Cl)ccnc2n1Cc1ccc(S(C)(=O)=O)cc1
pIC50 [1]: 7.10
pKi [2]: 6.45

SMILES: Cc1c(CC(=O)O)c2cccnc2n1Cc1ccc(S(=O)(=O)C(C)C)cc1
pKi [2]: 7.07

SMILES: Cc1c(CC(=O)O)c2cc(Br)cnc2n1Cc1ccc(S(C)(=O)=O)cc1
pKi [2]: 6.13

SMILES: Cc1c(CC(=O)O)c2cccnc2n1Cc1ccc(S(C)(=O)=O)cc1 [QAV680]
pIC50 (Rattus norvegicus [3]): 7.40
pKd [4]: 7.82
pIC50 [1]: 8.30
pIC50 [5]: 7.23
pIC50 [6]: 7.51
pIC50 [7]: 7.60
T1/2 [8]: 1.29 min

SMILES: Cc1c(CC(=O)O)c2cccnc2n1Cc1ccc(S(C)(=O)=O)c(C(F)(F)F)c1
pIC50 [1]: 8.40
pKi [2]: 7.51

Second part, led by results:

pIC50 [1]: 8.77
pKi [2]: 8.40
SMILES: Cc1c(CC(=O)O)c2cccnc2n1Cc1ccc(S(C)(=O)=O)cc1Cl

pIC50 [1]: 8.40
SMILES: Cc1cc(S(C)(=O)=O)ccc1Cn1c(C)c(CC(=O)O)c2cccnc21

pIC50 (Cytochrome P450 1A2): < 4.00
pEC50 [9]: < 5.00
pKd [4]: 8.99
pIC50 [1]: 9.40
fraction unbound [10]: 0.08
pIC50 [5]: 8.59
pIC50 [11]: < 5.00
pIC50 [12]: < 5.00
pIC50 [13]: 8.51
pIC50 [14]: < 5.00
Activity [15]: Not Active
pIC50 (Cytochrome P450 2C9): < 4.00
pIC50 (Cytochrome P450 3A4): < 4.00
half-life [16]: 792 min
Vd [17]: 1.1 L/kg
pIC50 (Rattus norvegicus [18]): 8.19
pEC50 (Prostacyclin receptor [19]): < 5.00
pIC50 [7]: 8.85
pIC50 (Thromboxane A2 receptor): < 5.00
bioavailability [20]: 43%
pIC50 [21]: < 5.00
pIC50 (Cytochrome P450 2D6): < 4.00
pIC50 (Prostacyclin receptor [22]): < 5.00
T1/2 [8]: 12 min
pIC50 [23]: < 5.00
clearance [25]: 1.6 mL/min/kg
SMILES: Cc1c(CC(=O)O)c2cccnc2n1Cc1ccc(S(C)(=O)=O)cc1C(F)(F)F [FEVIPIPRANT]
Activity (Canis familiaris): Non-Toxic
Activity (Rattus norvegicus [24]): Non-Toxic
